Results taken from US8680146B2, “Organic compounds” (Novartis AG, priority 2008, dated 2014).

Test: Solubility study of FTY720 salts in various solvents
Assay type: physicochemical
Settings: approx. values at 25° C.
Procedure: The solubilities of various salts were assessed and are given in the table below (approx. values at 25° C., g/100 ml %): […]

Row | SMILES | Solubility in 0.1N HCl [g/100 ml %] | Solubility in Acetone [g/100 ml %] | Solubility in Ethanol [g/100 ml %] | Solubility in Ethylacetate [g/100 ml %] | Solubility in Isopropanol [g/100 ml %] | Solubility in Octanol | Solubility in Water [g/100 ml %] | Solubility in pH 6.88 phosphate buffer [g/100 ml %]
1 | CCCCCCCCc1ccc(CCC(N)(CO)CO)cc1 [Free Base, 2-amino-2-[2-(4-octylphenyl)ethyl]propane-1,3-diol] | >2 | 0.52 | 3.88 | 0.45 | 2.03 | 1-2 g/100 ml % | 0.018 | <0.001
2 | CCCCCCCCc1ccc(CCC(N)(CO)CO)cc1.Cl [Hydrochloride, 2-amino-2-[2-(4-octylphenyl)ethyl]propane-1,3-diol hydrochloride salt] | >2 | 0.08 | >7.94 | 0.03 | 4.51 | 1-2 g/100 ml % | >10 | <0.001
